According to US20230203485A1, “METHODS FOR MODULATING MHC-I EXPRESSION AND IMMUNOTHERAPY USES THEREOF” (Dana-Farber Cancer Institute, Inc., priority 2020, published 2023):

Key:
class I gene transcripts = test: RNA-seq of MCC lines before and after IFN-γ stimulation; assay type: cell-based, human
Method: For samples from the MCC tumors and newly generated cell lines, RNA was first assessed for quality using the Agilent Bioanalyzer (DV200 metric). 100 ng of RNA were used as the input for first strand cDNA synthesis using Superscript III reverse transcriptase and Illumina's TruSeq RNA Access Sample Prep Kit. Synthesis of the second strand of cDNA was followed by indexed adapter ligation with UMI (unique molecular index) adaptors. Subsequent PCR amplification enriched for adapted fragments. Amplified libraries were quantified, normalized, pooled, and hybridized with exome targeting oligos. Following hybridization, bead clean-up, elution, and PCR was performed to prepare library pools for sequencing on Illumina flowcell lanes. Transcriptomes were sequenced to a coverage of at least 50 million reads in pairs.
Gene counts were obtained from BAM files using featureCounts version 2.0.0. Very lowly expressed genes with average count across samples less than 1 were excluded from analysis. […]
Differential expression analysis was carried out between IFN-γ plus and minus samples (adjusting for viral status as a covariate) using the negative binomial GLM Wald test of DESeq2, where significance was assessed using the p-values adjusted for multiple comparisons under default settings. […]

[1] = tested on: HLA-I and IFN pathway proteins; test: Whole proteome analysis of MCC cell lines with and without IFN-γ; assay type: cell-based, human
Method: Protein expression of MCC cell lines was assessed. Briefly, cell pellets of MCC cell lines with and without IFN-γ treatment were lysed in 8M Urea and digested to peptides using LysC and Trypsin (Promega). 400 μg peptides were labeled with TMT10 reagents (Thermo Fisher, 126-MCC-290, 127N-MCC-350_IFN, 127C MCC-275_IFN, 128N MCC-275, 128C MCC-350, 129N_MCC-301_IFN, 129C-MCC-277_IFN, 130N-MCC-290_IFNy, 130C MCC-277, 131 MCC-301) and then pooled for subsequent fractionation and analysis. Pooled peptides were separated into 24 fractions using offline high pH reversed phase fractionation. 1 μg per fraction was loaded onto an analytical column (20-30 cm with 1.9 μm C18 Reprosil beads [Dr. Maisch HPLC GmbH], packed in-house, PicoFrit 75 μM inner diameter, 10 μM emitter [New Objective]). Peptides were eluted with a linear gradient (EasyNanoLC 1000 or 1200, Thermo Scientific) ranging from 6-30% Buffer B (either 0.1% formic acid or 0.5% AcOH and 80% or 90% acetonitrile) over 84 min 30-90% Buffer B over 9 min, and held at 90% Buffer B for 5 min at 200 nl/min. During data dependent acquisition, peptides were analyzed on a Fusion Lumos (Thermo Scientific). Full scan MS was acquired at a 60,000 from 300-1,800 m/z. AGC target was set to 4e5 and 50 ms. […]

## IFN-γ: interferon gamma used to stimulate MCC cell lines
Class I gene transcripts; MCC lines, IFN-γ treatment
  class I gene transcripts: markedly upregulated
Class I gene transcripts; MCC-336 (non-IFN-γ-responsive)
  HLA-A, -B, and -C mRNA upregulation: lack of IFN-induced HLA-A, -B, and -C mRNA upregulation
[1]; 4 MCC lines
  class I upregulation in matched proteomes: confirmed
[1]; MCC-350 (non-IFN-γ-responsive), including STAT1 phosphorylation
  HLA-I and IFN pathway upregulation at the protein level: global lack of IFN-induced HLA-I and IFN pathway upregulation
